# Measured values: patent US4707481A, “Pyridazinones, their preparation and use, and bronchospasmolytic medicaments containing pyridazinones” (BYK Gulden Lomberg Chemische Fabrik GmbH, priority 1983, dated 1987)
# Read-outs that look alike come from different tables or passages of the source.
# Tests used:
# [1] = test system: chain of tracheal rings of guinea pigs; assay: relaxing action on chain of tracheal rings in vitro (bronchospasmolytic action); design: species or system guinea pig; conditions: for EC50: Cavia porcellus, Column A, negative logarithm of EC50 in mol/l, 50% of maximum relaxation by (-)isoprenaline, read-out: -lg[EC50] trachea (converted); for [EC40 pot.] left atrium / [EC50] trachea: Column C, measure of organ-selective activity; for [EC50] theophylline / [EC50] substance: Column D, trachea
# Procedure: The relaxing action of the 6-aryl-3[2H]pyridazinones I has been tested in vitro on a chain of tracheal rings (Tr.) of guinea pigs. […] The quotient of [EC40pot. ]left atrium and [ED50 ]trachea serves as a measure of the organ-selective activity.
# The bronchospasmolytic action of the compounds on the chain of tracheal rings of the guinea pig was tested in vitro:
# Four parallel chains of tracheal rings, each consisting of 6 individual rings, of guinea pigs(.male. and .female., 430-600 g) in an organ bath [5 ml, Krebs-Henseleit solution with added phentolamine (10^-5 mol/l), 37° C., initial tension of the organs 2 g, gassing with carbogen] develop a stable, spontaneous tonic contraction after about 20 to 30 minutes. […] Over a period of 20 to 30 minutes, a complete dose/action curve of the test substance is thus obtained. The particular relaxation is expressed as a percentage fraction of the maximum relaxation which can be achieved by administration of (-)isoprenaline (10^-6 mol/1). The concentration of the test substance which causes 50% of the maximum relaxation which can be achieved, expressed by the negative logarithm of the EC50 mol/l: -lg[EC50 ]is a measure of the bronchodilator activity.
# [2] = test system: electrically stimulated left atrium of rats; assay: positive inotropic action on electrically stimulated left atrium in vitro; design: species or system rat; conditions: for [EC40 pot.] theophylline / [EC40 pot.] substance: Column E, left atrium; for EC40: Rattus norvegicus, Column B, negative logarithm of EC40pot in mol/l, 40% increase in contraction force, read-out: -lg[EC40 pot.] left atrium (converted)
# Procedure: The positive inotropic action was tested in vitro on the electrically stimulated left atrium of rats (l.a.).
# The positive inotropic action of the compounds was tested in vitro on the electrically stimulated left atrium of rats.
# Isometric contractions (HSE force sensor K-30; Watanabe recorder, Linear Corder Mark 5) of isolated, left atria from rats (.male., 250-300 g) in an organ bath (10 ml, Tyrode nutrient solution, 31° C., gassing with carbogen, initial tension of the organs 0.25 g) under electrical stimulation (HSE stimulator, 7 V, 3 ms, 2 Hz) were recorded. […] The particular increase in the contraction force is expressed in % of the starting value before administration of the substance. The concentration of the test substance which potentiates the contraction force of the atrium by 40% compared with the starting value [EC40pot. mol/l], expressed by the negative logarithm of the [EC40pot mol/l]: -lg[EC40pot ] serves as a measure of the cardiotonic activity.
# [3] = toxicity studies, mouse p.o.; conditions: in vivo, po; for LD50 at 168 h: Column F, mouse p.o., 7 days observation, read-out: Approximate LD50; for tolerated dose: mouse, 10080 min
# Procedure: The toxicity studies are carried out on female NMRI mice (body weight 23-30 g). The animals (5 animals per dose) receive food and water ad libitum. Various doses of the substances are administered once as a suspension in methocel via a gavage. The period of observation lasts 7 days. The tolerated dose (TD), that is to say the highest dose at which as yet none of the animals die, is determined by observation. The average lethal dose (LD50), that is to say the dose at which 50% of the animals die, is determined from the dose/action curve by means of linear regression.
# [4] = test system: histamine-induced bronchospasm; assay: inhibition of histamine-induced bronchospasm in anesthetized guinea pigs; format: in vivo, guinea pig
# Procedure: A method for simultaneously recording pharmacodynamic and toxic effects on internal sensitive receptors, on the respiration and the cardiovascular system of guinea pigs was used [U. Kilian, E. Muller, E. Ch. […] To characterize the bronchospasm induced by histamine (0.09-0.18 μmol /kg i.v.), the maximum flow rate of the respiratory air during inspiration (Vmaxi) and expiration (Vmaxe) and the breath volume (BVi) were measured. A histamine spasm before administration of the substance was compared with several histamine spasms after administration of the substance. The test substances were administered intravenously (i.v.) and/or intrajejunally (i.j.). 5 to 10 animals were used per measurement, and the arithmetic mean was calculated from the results.
# [5] = test system: acetylcholine-induced bronchospasm; assay: protective effect against acetylcholine-induced bronchospasm in conscious guinea pigs; format: in vivo, guinea pig; conditions: 100 μmol/kg p.o.; for Tripling of the latency period: figure in parentheses
# Procedure: The figure in parentheses indicates the number out of 10 animals in which the latency period more than tripled.
# The latency period is to be understood to be the time from the start of acetylcholine-atomization until clear signs of asthma appeared.
# The time from the start of atomization to the onset of clear respiratory exertion (in certain circumstances, hypoxic convulsion in the lateral position) is measured, and is denoted the latency period.
# The test substance is administered orally by gavage (standard dose 100 μmol/kg, volume 1 ml of 4% strength methocel suspension in 0.9% strength sodium chloride solution/kg). […] Prolongation of the latency period to at least twice its length is regarded as a protective effect.
# [6] = test system: guinea pig hearts isolated and perfused by the Langendorff method; assay: left-ventricular pressure and heart rate in isolated perfused Langendorff hearts; conditions: for Emax: Cavia porcellus
# From the text: After the animals have been sacrificed by a blow to the neck and exsanguination through the carotid arteries, the thoracic cavity is opened, and the aorta is exposed and looped up with a thread. A cannula, which is attached by tubing to the apparatus from which the nutrient solution slowly drops, is introduced in the direction of the heart and the heart is, quickly after removal from the thorax, connected to the perfusion apparatus. A balloon probe, connected to a Statham pressure sensor, is advanced through a cut through the left atrium into the left ventricle, and is provided with an initial pressure of 40 mm Hg. […] The nutrient solution flowing freely from the coronary sinus into the right atrium is measured with a flow […]) and, together with the change in the left-ventricular pressure and the heart rate determined from this, is recorded on a Watanabe recorder. The substances are administered in a volume of 0.1 ml of nutrient solution, in the dosage indicated in Tab.
# [7] = test system: right ventricle of guinea pigs; assay: heart function dP/dtmax, right ventricle of anesthetized guinea pigs; format: in vivo, guinea pig
# Procedure: The effect of the substances on the contractility of the heart of guinea pigs is tested on animals (.male., 400 to 1000 g) under urethane anesthesia. The change in pressure in the right ventricle of the heart is measured with a tip catheter introduced through the right jugular vein and the maximum rate of pressure rise (dP/dtmax) is determined from this. The heart rate is derived from the pressure waves. […] The test substances were administered intravenously. 5-7 animals were used for each measurement, and the arithmetic mean was calculated from the results.
smiles,measurement,setting,value
CCOc1cc(-c2ccc(=O)[nH]n2)ccc1OC [compound 8],EC50,[1],0.339 µM
same,[EC40 pot.] left atrium / [EC50] trachea,[1],3.9
same,[EC50] theophylline / [EC50] substance,[1],398
same,[EC40 pot.] theophylline / [EC40 pot.] substance,[2],316
same,EC40,[2],1.32 µM
same,LD50 at 168 h,[3],550 mg/kg
"COc1cc(-c2ccc(=O)[nH]n2)ccc1OCCC(C)C [Serial No. 6, 6-[3-methoxy-4-(3-methylbutoxy)-phenyl]-3[2H]pyridazinone]",EC50,[1],0.708 µM
same,[EC40 pot.] left atrium / [EC50] trachea,[1],219
same,[EC50] theophylline / [EC50] substance,[1],190
same,[EC40 pot.] theophylline / [EC40 pot.] substance,[2],4.6
same,EC40,[2],91.2 µM
same,tolerated dose,[3],> 800
COc1cc(-c2ccc(=O)[nH]n2)ccc1OC(C)C [compound 1],EC50,[1],1.91 µM
same,EC40,[2],22.4 µM
same,LD50 at 168 h,[3],270 mg/kg
"Cn1c(=O)c2[nH]cnc2n(C)c1=O [Theophylline, theophylline, reference compound]",EC40,[2],417 µM
same,"inhibition of histamine-induced bronchospasm, TVi","[4]; 20 μmol/kg i.v., 2 min",45%
same,"inhibition of histamine-induced bronchospasm, Vmaxe","[4]; 20 μmol/kg i.v., 2 min",51%
same,"inhibition of histamine-induced bronchospasm, Vmaxi","[4]; 20 μmol/kg i.v., 2 min",49%
same,"inhibition of histamine-induced bronchospasm, TVi","[4]; 20 μmol/kg i.v., 10 min",5%
same,"inhibition of histamine-induced bronchospasm, Vmaxe","[4]; 20 μmol/kg i.v., 10 min",10%
same,"inhibition of histamine-induced bronchospasm, Vmaxi","[4]; 20 μmol/kg i.v., 10 min",11%
same,"inhibition of histamine-induced bronchospasm, TVi","[4]; 20 μmol/kg i.v., 20 min",5%
same,"inhibition of histamine-induced bronchospasm, Vmaxe","[4]; 20 μmol/kg i.v., 20 min",9%
same,"inhibition of histamine-induced bronchospasm, Vmaxi","[4]; 20 μmol/kg i.v., 20 min",8%
same,"inhibition of histamine-induced bronchospasm, TVi","[4]; 20 μmol/kg i.v., 30 min",10%
same,"inhibition of histamine-induced bronchospasm, Vmaxe","[4]; 20 μmol/kg i.v., 30 min",13%
same,"inhibition of histamine-induced bronchospasm, Vmaxi","[4]; 20 μmol/kg i.v., 30 min",8%
same,"inhibition of histamine-induced bronchospasm, TVi","[4]; 60 μmol/kg i.j., 2 min",7%
same,"inhibition of histamine-induced bronchospasm, Vmaxe","[4]; 60 μmol/kg i.j., 2 min",8%
same,"inhibition of histamine-induced bronchospasm, Vmaxi","[4]; 60 μmol/kg i.j., 2 min",6%
same,"inhibition of histamine-induced bronchospasm, TVi","[4]; 60 μmol/kg i.j., 10 min",35%
same,"inhibition of histamine-induced bronchospasm, Vmaxe","[4]; 60 μmol/kg i.j., 10 min",33%
same,"inhibition of histamine-induced bronchospasm, Vmaxi","[4]; 60 μmol/kg i.j., 10 min",42%
same,"inhibition of histamine-induced bronchospasm, TVi","[4]; 60 μmol/kg i.j., 20 min",41%
same,"inhibition of histamine-induced bronchospasm, Vmaxe","[4]; 60 μmol/kg i.j., 20 min",41%
same,"inhibition of histamine-induced bronchospasm, Vmaxi","[4]; 60 μmol/kg i.j., 20 min",46%
same,"inhibition of histamine-induced bronchospasm, TVi","[4]; 60 μmol/kg i.j., 30 min",37%
same,"inhibition of histamine-induced bronchospasm, Vmaxe","[4]; 60 μmol/kg i.j., 30 min",40%
same,"inhibition of histamine-induced bronchospasm, Vmaxi","[4]; 60 μmol/kg i.j., 30 min",45%
same,"inhibition of histamine-induced bronchospasm, TVi","[4]; 60 μmol/kg i.j., 45 min",33%
same,"inhibition of histamine-induced bronchospasm, Vmaxe","[4]; 60 μmol/kg i.j., 45 min",33%
same,"inhibition of histamine-induced bronchospasm, Vmaxi","[4]; 60 μmol/kg i.j., 45 min",39%
same,"inhibition of histamine-induced bronchospasm, TVi","[4]; 60 μmol/kg i.j., 60 min",37%
same,"inhibition of histamine-induced bronchospasm, Vmaxe","[4]; 60 μmol/kg i.j., 60 min",32%
same,"inhibition of histamine-induced bronchospasm, Vmaxi","[4]; 60 μmol/kg i.j., 60 min",39%
same,"inhibition of histamine-induced bronchospasm, TVi","[4]; 60 μmol/kg i.v., 2 min",78%
same,"inhibition of histamine-induced bronchospasm, Vmaxe","[4]; 60 μmol/kg i.v., 2 min",79%
same,"inhibition of histamine-induced bronchospasm, Vmaxi","[4]; 60 μmol/kg i.v., 2 min",95%
same,"inhibition of histamine-induced bronchospasm, TVi","[4]; 60 μmol/kg i.v., 10 min",27%
same,"inhibition of histamine-induced bronchospasm, Vmaxe","[4]; 60 μmol/kg i.v., 10 min",27%
same,"inhibition of histamine-induced bronchospasm, Vmaxi","[4]; 60 μmol/kg i.v., 10 min",38%
same,"inhibition of histamine-induced bronchospasm, TVi","[4]; 60 μmol/kg i.v., 20 min",16%
same,"inhibition of histamine-induced bronchospasm, Vmaxe","[4]; 60 μmol/kg i.v., 20 min",15%
same,"inhibition of histamine-induced bronchospasm, Vmaxi","[4]; 60 μmol/kg i.v., 20 min",19%
same,"inhibition of histamine-induced bronchospasm, TVi","[4]; 60 μmol/kg i.v., 30 min",16%
same,"inhibition of histamine-induced bronchospasm, Vmaxe","[4]; 60 μmol/kg i.v., 30 min",15%
same,"inhibition of histamine-induced bronchospasm, Vmaxi","[4]; 60 μmol/kg i.v., 30 min",18%
same,"inhibition of histamine-induced bronchospasm, TVi","[4]; 60 μmol/kg i.v., 60 min",3%
same,"inhibition of histamine-induced bronchospasm, Vmaxe","[4]; 60 μmol/kg i.v., 60 min",8%
same,"inhibition of histamine-induced bronchospasm, Vmaxi","[4]; 60 μmol/kg i.v., 60 min",7%
same,Doubling of the latency period,[5]; 30 min,6 N of 10 animals
same,Tripling of the latency period,[5]; 30 min,4 N of 10 animals
same,Doubling of the latency period,[5]; 45 min after administration,3 N of 10 animals
same,Tripling of the latency period,[5]; 45 min after administration,2 N of 10 animals
same,Emax,"[6]; after 3000 nMol, read-out: Emax left-ventricular pressure",16%
same,Emax,"[6]; at Emax, 3000 nMol, read-out: Percentage increase in heart rate at Emax",5%
same,EC20 left-ventricular pressure,[6]; dose which leads to a 20% increase in left ventricular pressure,is not reached
same,Percentage change in dP/dtmax,"[7]; 10 μmol/kg i.v., 0-10 min (Maximum)",59%
same,Percentage change in dP/dtmax,"[7]; 10 μmol/kg i.v., 10 min",12%
same,Percentage change in dP/dtmax,"[7]; 10 μmol/kg i.v., 30 min",20%
same,Percentage change in dP/dtmax,"[7]; 30 μmol/kg i.v., 0-10 min (Maximum)",92%
same,Percentage change in dP/dtmax,"[7]; 30 μmol/kg i.v., 10 min",53%
same,Percentage change in dP/dtmax,"[7]; 30 μmol/kg i.v., 30 min",67%
same,Percentage change in dP/dtmax,"[7]; 100 μmol/kg i.v., 0-10 min (Maximum)",147%
same,Percentage change in dP/dtmax,"[7]; 100 μmol/kg i.v., 10 min",135%
same,Percentage change in dP/dtmax,"[7]; 100 μmol/kg i.v., 30 min",112%
"CCCCOc1ccc(-c2ccc(=O)[nH]n2)cc1OC [Serial No. 3, 6-(4-n-butoxy-3-methoxyphenyl)-3[2H]pyridazinone]",EC50,[1],2.51 µM
same,[EC40 pot.] left atrium / [EC50] trachea,[1],2.6
same,[EC50] theophylline / [EC50] substance,[1],53.8
same,[EC40 pot.] theophylline / [EC40 pot.] substance,[2],63.2
same,EC40,[2],6.61 µM
same,tolerated dose,[3],> 761
COc1ccc(-c2ccc(=O)[nH]n2)cc1OCCC(C)C [compound 12],EC50,[1],0.501 µM
same,[EC40 pot.] left atrium / [EC50] trachea,[1],2000
same,[EC50] theophylline / [EC50] substance,[1],269
same,EC40,[2],> 1000 µM
same,LD50 at 168 h,[3],960 mg/kg
